# Experimental data taken from PubChem BioAssay (NCI).
#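 Interpolation was linear, between the two tested concentrations surrounding the appropriate level; five concentrations were tested over 48 hours in 96-well plates. GI50 is the concentration that inhibits growth by half. TGI: total growth inhibition.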
# How the values were obtained:
# Test in all cases: DTP human tumour cell line panel, 48 h
# 786-0 renal = system: 786-0 renal
# NCI/ADR-RES ovarian = system: NCI/ADR-RES ovarian
# SW-620 colon = system: SW-620 colon
# UO-31 renal = system: UO-31 renal
# SK-OV-3 ovarian = system: SK-OV-3 ovarian
# SN12C renal = system: SN12C renal
# COLO 205 colon = system: COLO 205 colon
# SNB-75 CNS = system: SNB-75 CNS
# NCI-H460 lung = system: NCI-H460 lung
# KM12 colon = system: KM12 colon
# SR leukemia = system: SR leukemia
# M14 melanoma = system: M14 melanoma
# MCF7 breast = system: MCF7 breast
# SK-MEL-5 melanoma = system: SK-MEL-5 melanoma
# MALME-3M melanoma = system: MALME-3M melanoma
# HCC-2998 colon = system: HCC-2998 colon
# A549 NSCLC = system: A549 NSCLC
# SF-295 CNS = system: SF-295 CNS
# NCI-H226 lung = system: NCI-H226 lung
# CCRF-CEM leukemia = system: CCRF-CEM leukemia
# CAKI-1 renal = system: CAKI-1 renal
# MDA-MB-231 breast = system: MDA-MB-231 breast
# MOLT-4 leukemia = system: MOLT-4 leukemia
# OVCAR-4 ovarian = system: OVCAR-4 ovarian
# RPMI-8226 leukemia = system: RPMI-8226 leukemia
# PC-3 prostate = system: PC-3 prostate
# OVCAR-5 ovarian = system: OVCAR-5 ovarian
# SNB-19 CNS = system: SNB-19 CNS
# HOP-92 NSCLC = system: HOP-92 NSCLC
# HCT-116 colon = system: HCT-116 colon
# SK-MEL-28 melanoma = system: SK-MEL-28 melanoma
# TK-10 renal = system: TK-10 renal
# LOX IMVI melanoma = system: LOX IMVI melanoma
# DU-145 prostate = system: DU-145 prostate
# HCT-15 colon = system: HCT-15 colon
# T-47D breast = system: T-47D breast
# HS 578T breast = system: HS 578T breast
# A498 renal = system: A498 renal
# OVCAR-3 ovarian = system: OVCAR-3 ovarian
# NCI-H23 lung = system: NCI-H23 lung
# SF-268 CNS = system: SF-268 CNS
# UACC-257 melanoma = system: UACC-257 melanoma
# HOP-62 NSCLC = system: HOP-62 NSCLC
# HL-60(TB) leukemia = system: HL-60(TB) leukemia
# EKVX NSCLC = system: EKVX NSCLC
# OVCAR-8 ovarian = system: OVCAR-8 ovarian
# MDA-MB-435 = system: MDA-MB-435
# ACHN renal = system: ACHN renal
# SK-MEL-2 melanoma = system: SK-MEL-2 melanoma
# IGROV1 ovarian = system: IGROV1 ovarian
# BT-549 breast = system: BT-549 breast
# HT29 colon = system: HT29 colon
# UACC-62 melanoma = system: UACC-62 melanoma
# NCI-H522 lung = system: NCI-H522 lung
# SF-539 CNS = system: SF-539 CNS
# U251 CNS = system: U251 CNS
compound,measurement,setting,value
O=C1c2cc(Cl)ccc2S(=O)(=O)c2c(NCCCNCCO)nc3ccccc3c21,GI50,786-0 renal,1710 nM
same,TGI,786-0 renal,3.34 µM
same,GI50,NCI/ADR-RES ovarian,3.05 µM
same,TGI,NCI/ADR-RES ovarian,10.8 µM
same,GI50,SW-620 colon,444 nM
same,TGI,SW-620 colon,1710 nM
same,GI50,UO-31 renal,1130 nM
same,TGI,UO-31 renal,2360 nM
same,GI50,SK-OV-3 ovarian,8.54 µM
same,TGI,SK-OV-3 ovarian,20.9 µM
same,GI50,SN12C renal,1250 nM
same,TGI,SN12C renal,2510 nM
same,GI50,COLO 205 colon,1010 nM
same,TGI,COLO 205 colon,2350 nM
same,GI50,SNB-75 CNS,2150 nM
same,TGI,SNB-75 CNS,9.35 µM
same,GI50,NCI-H460 lung,2020 nM
same,TGI,NCI-H460 lung,4.73 µM
same,GI50,KM12 colon,1590 nM
same,TGI,KM12 colon,3.3 µM
same,GI50,SR leukemia,466 nM
same,TGI,SR leukemia,5.11 µM
same,GI50,M14 melanoma,1950 nM
same,TGI,M14 melanoma,4.9 µM
same,GI50,MCF7 breast,1520 nM
same,TGI,MCF7 breast,3.71 µM
same,GI50,SK-MEL-5 melanoma,2500 nM
same,TGI,SK-MEL-5 melanoma,6.48 µM
same,GI50,MALME-3M melanoma,1190 nM
same,TGI,MALME-3M melanoma,2560 nM
same,GI50,HCC-2998 colon,4.31 µM
same,TGI,HCC-2998 colon,15.1 µM
same,GI50,A549 NSCLC,3.22 µM
same,TGI,A549 NSCLC,12.3 µM
same,GI50,SF-295 CNS,3.26 µM
same,TGI,SF-295 CNS,12.4 µM
same,GI50,NCI-H226 lung,10.1 µM
same,TGI,NCI-H226 lung,22.7 µM
same,GI50,CCRF-CEM leukemia,648 nM
same,TGI,CCRF-CEM leukemia,2740 nM
same,GI50,CAKI-1 renal,1180 nM
same,TGI,CAKI-1 renal,2400 nM
same,GI50,MDA-MB-231 breast,1490 nM
same,TGI,MDA-MB-231 breast,2940 nM
same,GI50,MOLT-4 leukemia,1820 nM
same,TGI,MOLT-4 leukemia,5.63 µM
same,GI50,OVCAR-4 ovarian,985 nM
same,TGI,OVCAR-4 ovarian,2180 nM
same,GI50,RPMI-8226 leukemia,888 nM
same,TGI,RPMI-8226 leukemia,3.28 µM
same,GI50,PC-3 prostate,1530 nM
same,TGI,PC-3 prostate,3.66 µM
same,GI50,OVCAR-5 ovarian,1650 nM
same,TGI,OVCAR-5 ovarian,3.32 µM
same,GI50,SNB-19 CNS,3.77 µM
same,TGI,SNB-19 CNS,14.4 µM
same,GI50,HOP-92 NSCLC,1010 nM
same,TGI,HOP-92 NSCLC,2440 nM
same,GI50,HCT-116 colon,1490 nM
same,TGI,HCT-116 colon,3.26 µM
same,GI50,SK-MEL-28 melanoma,1760 nM
same,TGI,SK-MEL-28 melanoma,3.39 µM
same,GI50,TK-10 renal,1210 nM
same,TGI,TK-10 renal,2460 nM
same,GI50,LOX IMVI melanoma,1580 nM
same,TGI,LOX IMVI melanoma,2950 nM
same,GI50,DU-145 prostate,1250 nM
same,TGI,DU-145 prostate,2520 nM
same,GI50,HCT-15 colon,926 nM
same,TGI,HCT-15 colon,2350 nM
same,GI50,T-47D breast,1240 nM
same,TGI,T-47D breast,2960 nM
same,GI50,HS 578T breast,2680 nM
same,TGI,HS 578T breast,14.9 µM
same,GI50,A498 renal,2950 nM
same,TGI,A498 renal,9.34 µM
same,GI50,OVCAR-3 ovarian,478 nM
same,TGI,OVCAR-3 ovarian,1660 nM
same,GI50,NCI-H23 lung,1770 nM
same,TGI,NCI-H23 lung,4.4 µM
same,GI50,SF-268 CNS,1700 nM
same,TGI,SF-268 CNS,4.37 µM
same,GI50,UACC-257 melanoma,1550 nM
same,TGI,UACC-257 melanoma,3.42 µM
same,GI50,HOP-62 NSCLC,4.54 µM
same,TGI,HOP-62 NSCLC,16.7 µM
same,GI50,HL-60(TB) leukemia,2100 nM
same,TGI,HL-60(TB) leukemia,6.79 µM
same,GI50,EKVX NSCLC,1660 nM
same,TGI,EKVX NSCLC,4.83 µM
same,GI50,OVCAR-8 ovarian,1860 nM
same,TGI,OVCAR-8 ovarian,4.53 µM
same,GI50,MDA-MB-435,1500 nM
same,TGI,MDA-MB-435,3.13 µM
same,GI50,ACHN renal,493 nM
same,TGI,ACHN renal,1630 nM
same,GI50,SK-MEL-2 melanoma,1930 nM
same,TGI,SK-MEL-2 melanoma,4.74 µM
same,GI50,IGROV1 ovarian,2880 nM
same,TGI,IGROV1 ovarian,9.56 µM
same,GI50,BT-549 breast,3.99 µM
same,TGI,BT-549 breast,14.6 µM
same,GI50,HT29 colon,1400 nM
same,TGI,HT29 colon,2940 nM
same,GI50,UACC-62 melanoma,1610 nM
same,TGI,UACC-62 melanoma,3.35 µM
same,GI50,NCI-H522 lung,323 nM
same,TGI,NCI-H522 lung,1420 nM
same,GI50,SF-539 CNS,1600 nM
same,TGI,SF-539 CNS,3.13 µM
same,GI50,U251 CNS,1620 nM
same,TGI,U251 CNS,3.18 µM
